Assay results from US12227520B2 (priority 2019, dated 2025).
Read-outs that look alike come from different tables or passages of the source.

Assays:
HIV-1 (IIIB) = test: Antiviral assay in MT-4 cells (HIV MT-4 antiviral assay); format: cell-based; conditions: Human immunodeficiency virus 1, IIIB, MT4, 120 h, HIV-1 (IIIB) in MT-4 cells, 5 days incubation; read-out: EC50
Outline: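 Read-out is CellTiter-Glo chemiluminescence after 5-day culture at 37° C, giving protection of MT-4 cells from HIV-1 IIIB cytopathicity. Compounds tested in 1:3 dilution series in complete RPMI; controls were no drug, mock infection and 5 μM AZT.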

[1] = Cytotoxicity assay in MT-4 cells; format: cell-based, human; conditions: human, uninfected MT-4 cells, 5 days incubation; read-out: CC50
Outline: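 For cytotoxicity, uninfected MT-4 cells were incubated with compounds 5 days at 37 °C, with 10 μM puromycin marking base cytotoxicity. Parallel plates used HIV-1 IIIB-infected (1:250 stock dilution) or mock cells with 5 μM AZT and no-drug controls. Read-out: CellTiter-Glo chemiluminescence.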

pLai RLuc reporter virus = test: microbe, parasite or virus in culture; format: cell-based, HIV; conditions: Human immunodeficiency virus 1, 72 h
Outline: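 Read-out is Renilla luciferase after 72 h at 37 °C in MT-4 cells infected 2 h beforehand with pLai RLuc reporter virus; compounds diluted 1:3.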

[2] = read-out: Antiviral Serum Shift RLuc 50% HS, HS/CCM (RPMI media, 10% FBS, 50% HS, 1% P/S), 72-h incubation
[3] = read-out: Antiviral Serum Shift RLuc CCM, CCM (RPMI media, 10% FBS, 1% P/S), 72-h incubation

| Structure (SMILES) | EC50 (HIV-1 (IIIB)) | CC50 at 5 days [1] | EC50 (pLai RLuc reporter virus; [2]) | EC50 (pLai RLuc reporter virus; [3]) |
| --- | --- | --- | --- | --- |
| O=C(NCc1c(F)cc(F)cc1F)c1cn2c(c(O)c1=O)C(=O)N1C[C@@H]2CCc2c(F)cccc21 [Example 43-1, (12S)-1-fluoro-7-hydroxy-6,8-dioxo-N-(2,4,6-trifluorobenzyl)-6,8,13,14-tetrahydro-12H-5,12-methanobenzo[e]pyrido[1,2-a][1,4]diazonine-9-carboxamide] | 41.5 nM | 8100 nM | 147 nM | 4.35 nM |
| O=C(NCc1ccc(F)cc1F)c1cn2c(c(O)c1=O)C(=O)N1CC/C=C\C[C@@H]2C1 [Example 44-1, (8R,Z)—N-(2,4-difluorobenzyl)-13-hydroxy-1,12-dioxo-1,3,4,7,8,12-hexahydro-2,8-methanopyrido[1,2-a][1,4]diazecine-11-carboxamide] | 1.71 nM | 10700 nM | 2.33 nM | 0.677 nM |
| C[C@@H]1CCC[C@@H]2CN1C(=O)c1c(O)c(=O)c(C(=O)NCc3ccc(F)cc3F)cn12 [Example 52-3, (3R, 7R)—N-(2,4-difluorobenzyl)-12-hydroxy-3-methyl-1,11-dioxo-1,4,5,6,7,11-hexahydro-3H-2,7-methanopyrido[1,2-a][1,4]diazonine-10-carboxamide] | 3.05 nM | 15500 nM | 114 nM | 0.589 nM |
| O=C(NCc1c(F)cc(F)cc1F)c1cn2c(c(O)c1=O)C(=O)N1CCC=C[C@@H]2C1 [Example 109-1, (7R)-12-hydroxy-1,11-dioxo-N-(2,4,6-trifluorobenzyl)-1,4,7,11-tetrahydro-3H-2,7-methanopyrido[1,2-a][1,4]diazonine-10-carboxamide] | 1.81 nM | 11300 nM | 50.8 nM | 0.527 nM |
| O=C(NCc1c(F)cc(F)cc1F)c1cn2c(c(O)c1=O)C(=O)N1CCc3cc(F)c(F)cc3[C@H]2C1 (single isomer, unassigned) [Example 110-1] | 2 nM | 9870 nM | 2.75 nM | 0.323 nM |
| C[C@]1(O)CCCN2C[C@H]1n1cc(C(=O)NCc3ccc(F)cc3F)c(=O)c(O)c1C2=O [Example 14-1, (6S,7R)—N-(2,4-difluorobenzyl)-6,12-dihydroxy-6-methyl-1,11-dioxo-1,4,5,6,7,11-hexahydro-3H-2,7-methanopyrido[1,2-a][1,4]diazonine-10-carboxamide] | 3 nM | 22200 nM | 1.88 nM | 0.79 nM |
| O=C(NCc1c(F)cc(F)cc1F)c1cn2c(c(O)c1=O)C(=O)N1CCCC(F)(F)[C@@H]2C1 (single isomer, unassigned) [Example 10-1] | 3.2 nM | 37100 nM | 1140 nM | 1.02 nM |
| CC[C@@H]1CCC[C@H]2CN1C(=O)c1c(O)c(=O)c(C(=O)NCc3c(F)cc(F)cc3F)cn12 [Example 130-1, (3R,7S)-3-ethyl-12-hydroxy-1,11-dioxo-N-(2,4,6-trifluorobenzyl)-1,4,5,6,7,11-hexahydro-3H-2,7-methanopyrido[1,2-a][1,4]diazonine-10-carboxamide] | 1.53 nM | 12200 nM | 4.17 nM | 0.213 nM |
| C[C@H]1[C@H](F)CC[C@H]2CN1C(=O)c1c(O)c(=O)c(C(=O)NCc3c(F)cc(F)cc3F)cn12 [Example 158, (3S,4R,7S)-4-fluoro-12-hydroxy-3-methyl-1,11-dioxo-N-(2,4,6-trifluorobenzyl)-1,4,5,6,7,11-hexahydro-3H-2,7-methanopyrido[1,2-a][1,4]diazonine-10-carboxamide] | 1.67 nM | 8830 nM | 49.7 nM | 0.306 nM |
| O=C(NCc1c(F)cc(F)cc1F)c1cn2c(c(O)c1=O)C(=O)N1C[C@@H](O)CC[C@H]2C1 (single isomer, unassigned) [Example 79-1] | 58.5 nM | > 50000 nM | 23.5 nM | 19.5 nM |
| O=C(NCc1c(F)cc(F)cc1F)c1cn2c(c(O)c1=O)C(=O)N1CCCC[C@]2(CF)C1 [Example 163-2, (7R)—N-(2,4,6-trifluorobenzyl)-7-(fluoromethyl)-12-hydroxy-1,11-dioxo-1,4,5,6,7,11-hexahydro-3H-2,7-methanopyrido[1,2-a][1,4]diazonine-10-carboxamide] | 2.29 nM | 13800 nM | 15.3 nM | 0.118 nM |
| O=C(NCc1c(F)cc(F)cc1F)c1cn2c(c(O)c1=O)C(=O)N1CCOC[C@H]2C1 [Example 20, (7R)-12-Hydroxy-1,11-dioxo-N-(2,4,6-trifluorobenzyl)-1,3,4,6,7,11-hexahydro-2,7-methanopyrido[1,2-d][1,4,7]oxadiazonine-10-carboxamide] | 5.6 nM | 37200 nM | 33.4 nM | 1.83 nM |
| O=C(NCc1ccc(F)c(Cl)c1F)c1cn2c(c(O)c1=O)C(=O)N1CCC=C(F)[C@@H]2C1 (single isomer, unassigned) [Example 123-2] | 1.93 nM | 14600 nM | 440 nM | 0.245 nM |
| O=C(NCc1c(F)cc(F)cc1F)c1cn2c(c(O)c1=O)C(=O)N1C[C@@H]2CS(=O)(=O)c2ccccc21 [Example 96, (6R)-1-hydroxy-2,14-dioxo-N-(2,4,6-trifluorobenzyl)-2,6,7,14-tetrahydro-6,13-methanobenzo[b]pyrido[2,1-f][1,4,7]thiadiazonine-3-carboxamide 8,8-dioxide] | 18.1 nM | > 50000 nM | 3.33 nM | 3.09 nM |
| O=C(NCc1c(F)cc(F)cc1F)c1cn2c(c(O)c1=O)C(=O)N1CCC(F)(F)C[C@H]2C1 [Example 114, (7S)-5,5-difluoro-12-hydroxy-1,11-dioxo-N-(2,4,6-trifluorobenzyl)-1,4,5,6,7,11-hexahydro-3H-2,7-methanopyrido[1,2-a][1,4]diazonine-10-carboxamide] | 2.27 nM | 30500 nM | 1.04 nM | 0.717 nM |
| O=C(NCc1c(F)cc(F)cc1F)c1cn2c(c(O)c1=O)C(=O)N1CCC[C@H]3C[C@@]32C1 [Example 66-2, (1aS,11aS)—N-(2,4,6-trifluorobenzyl)-7-hydroxy-6,8-dioxo-1a,2,3,4,6,8-hexahydro-1H-5,11a-methanocyclopropa[h]pyrido[1,2-a][1,4]diazonine-9-carboxamide] | 1.68 nM | 10400 nM | 4.55 nM | 0.294 nM |
| O=C(NCc1c(F)cc(F)cc1F)c1cn2c(c(O)c1=O)C(=O)N1CCc3cc(F)c(F)cc3[C@@H]2C1 (single isomer, unassigned) [Example 110-2] | 30.5 nM | 6330 nM | 53.7 nM | 4.81 nM |
| O=C(NCc1ccc(F)cc1F)c1cn2c(c(O)c1=O)C(=O)N1CCCC[C@]2(CF)C1 [Example 162-2, (7R)—N-(2,4-difluorobenzyl)-7-(fluoromethyl)-12-hydroxy-1,11-dioxo-1,4,5,6,7,11-hexahydro-3H-2,7-methanopyrido[1,2-a][1,4]diazonine-10-carboxamide] | 2.58 nM | 14400 nM | 15.3 nM | 0.118 nM |
| C[C@@H]1CC[C@H](C)[C@@H]2CN1C(=O)c1c(O)c(=O)c(C(=O)NCc3c(F)cc(F)cc3F)cn12 [Example 151-1, (3R,6S,7R)-12-hydroxy-3,6-dimethyl-1,11-dioxo-N-(2,4,6-trifluorobenzyl)-1,4,5,6,7,11-hexahydro-3H-2,7-methanopyrido[1,2-a][1,4]diazonine-10-carboxamide] | 4.27 nM | 14700 nM | 1140 nM | 0.729 nM |
| C[C@H]1CC[C@H](C)N2C[C@H]1n1cc(C(=O)NCc3ccc(F)cc3F)c(=O)c(O)c1C2=O [Example 187, (3S,6S,7S)—N-(2,4-difluorobenzyl)-12-hydroxy-3,6-dimethyl-1,11-dioxo-1,4,5,6,7,11-hexahydro-3H-2,7-methanopyrido[1,2-a][1,4]diazonine-10-carboxamide] | 1.18 nM | 10800 nM | 44 nM | 0.383 nM |
| O=C(NCc1c(F)cc(F)cc1F)c1cn2c(c(O)c1=O)C(=O)N1C[C@H]2CCc2cccc(F)c21 [Example 46-2, (12R)-4-fluoro-7-hydroxy-6,8-dioxo-N-(2,4,6-trifluorobenzyl)-6,8,13,14-tetrahydro-12H-5,12-methanobenzo[e]pyrido[1,2-a][1,4]diazonine-9-carboxamide] | 1.41 nM | 12500 nM | 2.91 nM | 0.204 nM |
| O=C(NCc1c(F)cc(F)cc1F)c1cn2c(c(O)c1=O)C(=O)N1C[C@H]2CCCc2ccccc21 [Example 80-2, (6R)-1-hydroxy-2,15-dioxo-N-(2,4,6-trifluorobenzyl)-2,6,7,8,9,15-hexahydro-6,14-methanobenzo[e]pyrido[1,2-a][1,4]diazecine-3-carboxamide] | 5.35 nM | 13400 nM | 7.54 nM | 0.618 nM |
| O=C(NCc1ccc(F)cc1F)c1cn2c(c(O)c1=O)C(=O)N1CCCC[C@H]2C1 (single isomer, unassigned) [Example 25-2] | 1.46 nM | 10800 nM | 1.14 nM | 0.285 nM |
